# Reference: ChEMBL document CHEMBL5537150, “Synthesis of melampomagnolide B derivatives as potential anti-Triple Negative Breast Cancer agents” (Eur J Med Chem, 2024)
# pIC50: −log10 of the molar value. Activity calls are given as the source filed them. No cut-off for these calls is given here.
# Tests used:
# MDA-MB-231 [1] = experiment: Induction of apoptosis in human MDA-MB-231 cells at 1 uM incubated for 48 hrs by annexin-V-APC/PI staining based flow cytometric analysis (reference value: 1.81 +/- 0.47 %); assay type: functional
# 4T1 [2] = experiment: Antiproliferative activity against mouse 4T1 cells assessed as inhibition of cell growth incubated for 72 hrs by MTT assay; assay type: functional, cell-based; conditions: 4T1, 72 h
# MDA-MB-468 [3] = experiment: Antimigratory activity in human MDA-MB-468 cells assessed as downregulation of Vimentin protein expression incubated for 48 hrs by Western blotting analysis; assay type: functional, cell-based
# SUM-159-PT = experiment: Antiproliferative activity against human SUM159 cells assessed as inhibition of cell growth incubated for 72 hrs by MTT assay; assay type: functional, cell-based
# MDA-MB-468 [4] = experiment: Induction of cell cycle arrest in human MDA-MB-468 cells assessed as downregulation of Cdc2 protein expression incubated for 48 hrs by Western blotting analysis; assay type: functional, cell-based
# MDA-MB-231 [5] = experiment: Induction of cell cycle arrest in human MDA-MB-231 cells assessed as downregulation of Cyclin E1 protein expression incubated for 48 hrs by Western blotting analysis; assay type: functional, cell-based
# MDA-MB-231 [6] = experiment: Induction of apoptosis in human MDA-MB-231 cells at 2 uM incubated for 48 hrs by annexin-V-APC/PI staining based flow cytometric analysis (reference value: 1.81 +/- 0.47 %); assay type: functional
# MDA-MB-468 [7] = experiment: Antimigratory activity in human MDA-MB-468 cells assessed as reduction in number of migrated cells incubated for 48 hrs by crystal violet staining based transwell assay; assay type: functional, cell-based
# MDA-MB-231 [8] = experiment: Induction of cell cycle arrest in human MDA-MB-231 cells assessed as downregulation of Cdc2 protein expression incubated for 48 hrs by Western blotting analysis; assay type: functional, cell-based
# MDA-MB-231 [9] = experiment: Induction of apoptosis in human MDA-MB-231 cells assessed as downregulation of BCL-xl protein expression incubated for 48 hrs by Western blotting analysis; assay type: functional, cell-based
# MDA-MB-231 [10] = experiment: Induction of apoptosis in human MDA-MB-231 cells at 0.2 uM incubated for 48 hrs by annexin-V-APC/PI staining based flow cytometric analysis (reference value: 1.81 +/- 0.47 %); assay type: functional
# MDA-MB-468 [11] = experiment: Induction of apoptosis in human MDA-MB-468 cells at 0.5 uM incubated for 48 hrs by annexin-V-APC/PI staining based flow cytometric analysis (reference value: 5.38 +/- 1.63 %); assay type: functional
# MDA-MB-231 [12] = experiment: Induction of apoptosis in human MDA-MB-231 cells at 0.5 uM incubated for 48 hrs by annexin-V-APC/PI staining based flow cytometric analysis (reference value: 1.81 +/- 0.47 %); assay type: functional
# MDA-MB-231 [13] = experiment: Inhibition of NF-kappaB signalling pathway in human MDA-MB-231 cells assessed as downregulation of p65 phosphorylation at 0.5 to 2 uM incubated for 48 hrs by Western blotting analysis; assay type: cell-based; conditions: dose 0.5-2 µM
# MDA-MB-468 [14] = experiment: Induction of cell cycle arrest in human MDA-MB-468 cells assessed as downregulation of Cyclin E1 protein expression incubated for 48 hrs by Western blotting analysis; assay type: functional, cell-based
# 4T1 [15] = experiment: Antitumor activity against mouse 4T1 cells implanted in Balb/c mouse assessed as decrease in liver weight at 10 mg/kg,ip administrated every two days for 20 days; assay type: functional, organism-based; conditions: time 20.0 day
structure (smiles),measurement,setting,value
C=C1C(=O)O[C@H]2[C@H]1CC/C(COc1ccc(-c3cc(=S)ss3)cc1)=C\CC[C@@]1(C)O[C@@H]21,Activity,MDA-MB-231 [1],11.6%
same,pIC50,4T1 [2],5.93
same,Activity,MDA-MB-468 [3],Dose-Dependent Effect
same,pIC50,SUM-159-PT,5.82
same,Activity,MDA-MB-468 [4],Dose-Dependent Effect
same,Activity,MDA-MB-231 [5],Dose-Dependent Effect
same,Activity,MDA-MB-231 [6],48.24%
same,Activity,MDA-MB-468 [7],Dose-Dependent Effect
same,Activity,MDA-MB-231 [8],Dose-Dependent Effect
same,Activity,MDA-MB-231 [9],Dose-Dependent Effect
same,Activity,MDA-MB-231 [10],2.01%
same,Activity,MDA-MB-468 [11],5.77%
same,Activity,MDA-MB-231 [12],2.3%
same,inhibition,MDA-MB-231 [13],Active
same,Activity,MDA-MB-468 [14],Dose-Dependent Effect
same,Activity,4T1 [15],Active
